Data taken from US20120196899A1, “METHODS AND PRODUCTS FOR TREATING INFLAMMATION” (Rock Creek Pharmaceuticals, Inc., priority 2010, published 2012).

Columns and labels:
[1] = biological target: T1, nAChR α4/β2 (Homo sapiens, UniProt P17787+P43681); assay: nAChR α4/β2 positive allosteric modulator assay (FLIPR); type: cell-based; conditions: with 10 μM Ach (= 0%), 10 μM Ach + epibatidine = 100%
T1 construct: host or cells: HEK293 cells, transient transfection
Experimental: (§1) The following three (3) channels were evaluated: • 1. nAChR α3/β4 (encoded by the human CHRNA3 and CHRNB4 gene and stably expressed in CHO cells); • 2. nAChR α4/β2 (CHRNA4 and CHRNB2 gene and transiently expressed in HEK293 cells); and • 3. nAChR α7 (encoded by the human nicotinic α7 gene coexpressed in CHO cells with the chaperone RIC-3 encoded by the human RIC3 gene).
(§2) The ability of each test article to act as an agonist, a positive allosteric modulator or antagonist of three nAChR receptor channels was evaluated in the presence of 0.1 atropine. Both test articles were evaluated for responses on each nAChR channel at eight (8) concentrations: 0.3, 1, 3, 10, 30, 100, 300, and 1000 μM (n=4 for each concentration).
(§3) HEK293 or CHO cells were transiently or stably transfected with the appropriate human ion channel cDNAs. Stable transfectants were selected by coexpression with the antibiotic-resistance gene(s) incorporated into the expression plasmid(s). Selection pressure was maintained by including selection antibiotics in the culture medium. HEK293 cells were cultured in Dulbecco's Modified Eagle Medium/Nutrient Mixture F-12 (D-MEM/F-12) supplemented with 10% fetal bovine serum, 100 U/mL penicillin G sodium, 100 g/mL streptomycin sulfate and appropriate selection antibiotics. CHO cells were cultured in Ham's F-12 supplemented with 10% fetal bovine serum, 100 U/mL penicillin G sodium, 100 g/mL streptomycin sulfate and appropriate selection antibiotics.
(§4) For FLIPR TETRA™ assay, cells were plated in 384-well black wall, flat clear bottom microtiter plates (Type: BD Biocoat Poly-D-Lysine Multiwell Cell Culture Plate) at 20,000 to 30,000 cells per well (384-well plate). Cells were incubated at 37° C. overnight or until the cells reached a sufficient density in the wells (near confluent monolayer) to use in fluorescence assays. For α4β2 assay, cells were incubated at 27° C. for at least 7 hours before use.
(§5) Experiments were performed with either the FLIPR calcium sensitive dye kit (Fluo-8, ABDbioquest, for nAChR α3/β4 and nAChR α7) or FLIPR membrane potential kit (Molecular Devices, for nAChR α4/β2) according to the manufacturer's instructions. Briefly, cells were incubated with 201 dye for 30 min at 37° C. After dye loading period, for the agonist assay, 5 μl of the test, vehicle, or control articles at concentration of 5 times of final concentration were applied to the cells without stimulation. For the positive allosteric modulation (PAM) and antagonist assay, after test article application, the cells were stimulated with either low dose (for PAM) or high dose (for antagonist) of Ach.
The signal elicited in the presence of the positive control agonist and allosteric modulator epibatidine (10 μM Ach+3 μM epibatidine) was set to 100% and the signal from the agonist control (10 μM Ach) was set to 0%.

[2] = biological target: T2, nAChR α7 (Homo sapiens, UniProt P36544); assay: nAChR α7 positive allosteric modulator assay (FLIPR); type: cell-based; conditions: with 30 μM Ach (= 0%), 30 μM Ach + 10 μM PNU-120596 = 100%
T2 construct: host or cells: CHO cells
T2 sequence (P36544 23-502): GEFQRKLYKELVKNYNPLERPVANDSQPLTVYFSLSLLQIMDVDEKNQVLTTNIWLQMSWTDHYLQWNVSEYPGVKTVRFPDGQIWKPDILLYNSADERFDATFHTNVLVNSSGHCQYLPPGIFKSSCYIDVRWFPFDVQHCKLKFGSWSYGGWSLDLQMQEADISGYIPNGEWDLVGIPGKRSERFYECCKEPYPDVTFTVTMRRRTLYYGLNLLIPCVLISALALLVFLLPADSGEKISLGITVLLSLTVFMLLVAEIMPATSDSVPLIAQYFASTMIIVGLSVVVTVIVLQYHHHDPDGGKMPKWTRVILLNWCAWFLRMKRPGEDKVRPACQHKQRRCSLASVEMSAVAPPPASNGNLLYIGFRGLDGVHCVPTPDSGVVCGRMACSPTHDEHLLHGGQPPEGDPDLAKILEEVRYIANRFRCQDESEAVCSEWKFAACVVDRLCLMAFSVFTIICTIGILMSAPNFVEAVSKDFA
Experimental: as §1, §2, §3, §4, §5
The ability of each test article to act as a positive allosteric modulator of nicotinic α7 was carried out in the presence of the positive control agonist (30 μM Ach) alone. The signal elicited in the presence of the positive control agonist and allosteric modulator PNU-120596 (30 μM Ach+10 μM PNU-120596) was set to 100% and the signal from the agonist control (30 μM Ach) was set to 0%. Values were considered significant and in bold font if the test article mean was three or more standard deviations above the agonist control mean.

[3] = tested on: BACE-1 mRNA; assay: BACE-1 mRNA levels in SHSY cells by RTPCR; type: cell-based, human; conditions: 30 minutes, TNF-α induced
Text: TNF-α was used to increase BACE expression.

[4] = Physical signs after oral multi-dose administration; type: in vivo, Sprague-Dawley rats; conditions: 0.6 or 6.0 mg/kg BW p.o. in three divided doses
Text: The physical signs of each animal were monitored following administration of the test compound.

[5] = tested on: Experimental Autoimmune Thyroiditis; assay: Experimental Autoimmune Thyroiditis (Example 16A): serum antibodies to PPD and thyroglobulin; type: in vivo, mice
Experimental: Thyroiditis was induced by injection of thyroglobulin emulsified in complete Freund's adjuvant (CFA). On days 0 and 7, female mice received subcutaneous injection of 100 μg thyroglobulin (2 injections of 50 μg each). Control mice drank water. […] Mice were sacrificed on day 21.
Immunochemistry. Serum from control and anatabine-treated mice was examined to determine levels of antibodies to a foreign antigen (PPD).
Levels of antibodies to thyroglobulin were examined on days 7, 14, and 21 after immunization.

[6] = tested on: HEK293; assay: LDH cytotoxicity assay on supernatants of the treated cells; type: cell-based, Human
Experimental: Cytotoxicity assays using the supernatants from the treated cells were conducted using an LDH Cytotoxicity Detection Kit (Roche) according to the manufacturer's instructions.

[7] = tested on: LPS-induced IL-1β release; assay: LPS-induced IL-1β release in whole human blood; type: cell-based
Experimental: Whole human blood was treated with LPS to stimulate inflammatory responses. […] The inflammatory molecule IL-1β was measured after 16 hours.

[8] = nicotine 1.25 mg/kg (1 female) and 1.0 mg/kg (3 females) single i.v.
Experimental: One control group of animals received a single i.v. dose of the vehicle at 5 mL/kg. Ten rats (5 males and 5 females) were dosed per group. […] One female received a single i.v. dose of 1.25 mg/kg, and 3 females received a single i.v. dose of 1.0 mg/kg.
Following the tolerability study, an additional group was added to the study. […] All animals were observed daily. Body weight and food consumption was measured daily, with any abnormal observations noted. Average daily body weights and food consumption was tabulated with standard deviation calculated.

T1 sequence (P17787 26-502): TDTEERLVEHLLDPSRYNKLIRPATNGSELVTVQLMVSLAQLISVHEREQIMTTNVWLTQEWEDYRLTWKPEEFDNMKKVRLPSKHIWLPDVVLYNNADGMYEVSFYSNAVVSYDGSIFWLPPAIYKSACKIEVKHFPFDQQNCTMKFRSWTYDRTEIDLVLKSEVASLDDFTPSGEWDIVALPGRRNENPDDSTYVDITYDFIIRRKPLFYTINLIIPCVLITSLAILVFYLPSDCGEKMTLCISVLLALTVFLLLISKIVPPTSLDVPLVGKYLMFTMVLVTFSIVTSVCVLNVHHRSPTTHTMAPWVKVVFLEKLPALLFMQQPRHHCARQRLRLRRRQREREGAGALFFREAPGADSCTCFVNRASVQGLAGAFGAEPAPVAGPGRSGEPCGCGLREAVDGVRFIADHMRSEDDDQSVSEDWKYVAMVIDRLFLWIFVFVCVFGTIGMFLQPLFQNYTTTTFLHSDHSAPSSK
T1 sequence (P43681 29-627): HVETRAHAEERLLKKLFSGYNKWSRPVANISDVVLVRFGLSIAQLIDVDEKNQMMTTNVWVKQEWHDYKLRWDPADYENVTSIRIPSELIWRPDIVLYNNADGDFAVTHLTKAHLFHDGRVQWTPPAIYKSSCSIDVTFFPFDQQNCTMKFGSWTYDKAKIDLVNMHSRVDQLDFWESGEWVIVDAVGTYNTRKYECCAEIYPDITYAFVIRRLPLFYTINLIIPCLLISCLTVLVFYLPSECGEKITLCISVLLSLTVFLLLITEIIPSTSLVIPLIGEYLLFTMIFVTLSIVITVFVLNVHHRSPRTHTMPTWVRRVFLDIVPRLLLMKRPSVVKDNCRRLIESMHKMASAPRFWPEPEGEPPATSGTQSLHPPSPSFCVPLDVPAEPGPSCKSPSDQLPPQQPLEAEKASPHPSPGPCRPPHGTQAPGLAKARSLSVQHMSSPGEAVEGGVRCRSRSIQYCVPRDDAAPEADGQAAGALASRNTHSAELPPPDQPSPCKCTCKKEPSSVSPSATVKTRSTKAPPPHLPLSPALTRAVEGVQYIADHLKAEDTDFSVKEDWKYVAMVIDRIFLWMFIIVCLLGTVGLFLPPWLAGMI

Which results are given for `C1=CCC(c2cccnc2)NC1` (racemic) [Anatabine (racemate)]?
Normalized % Potentiation ([1]; test conc 0.3 μM): −18.94%; Normalized % Potentiation ([1]; test conc 1 μM): −27.03%; Normalized % Potentiation ([1]; test conc 3 μM): −35.59%; Normalized % Potentiation ([1]; test conc 10 μM): −42.34%; Normalized % Potentiation ([1]; test conc 30 μM): −39.48%; Normalized % Potentiation ([1]; test conc 100 μM): −38.34%; Normalized % Potentiation ([1]; test conc 300 μM): −41.07%; Normalized % Potentiation ([1]; test conc 1000 μM): −35.30%; Normalized % Potentiation ([2]; test conc 0.3 μM): −0.94%; Normalized % Potentiation ([2]; test conc 1 μM): −1.05%; Normalized % Potentiation ([2]; test conc 3 μM): −0.82%; Normalized % Potentiation ([2]; test conc 10 μM): −0.51%; Normalized % Potentiation ([2]; test conc 30 μM): −0.57%; Normalized % Potentiation ([2]; test conc 100 μM): −0.64%; Normalized % Potentiation ([2]; test conc 300 μM): −0.74%; Normalized % Potentiation ([2]; test conc 1000 μM): −1.05%

Which results are given for `C1=CCC(c2cccnc2)NC1` (racemic) [Anatabine, 1,2,3,6-tetrahydro-[2,3′]bipyridinyl]?
BACE-1 mRNA expression [3]: reduced this signal in a concentration-dependent manner; adverse signs [4]: no adverse signs were observed; levels of antibodies to PPD ([5]; 0.05 mg/ml in drinking water, versus control): no significant difference; levels of antibodies to thyroglobulin ([5]; day 7): no significant difference; levels of antibodies to thyroglobulin ([5]; day 14, p=0.086): tended to have lower thyroglobulin antibodies; levels of antibodies to thyroglobulin ([5]; day 21): no significant difference; cytotoxicity (LDH release) [6]: without cellular toxicity; IL-1β production over time ([7]; LPS-stimulated human blood, repeated measurement (Example 15)): rapid and continuous effect on the suppression; accumulation of IL-1β ([7]; LPS-treated whole human blood, 16 hours (Example 13)): reduced accumulation of IL-1β; accumulation of IL-1β over dose response ([7]; LPS-treated whole human blood, 16 hours (Example 14)): reduced accumulation of IL-1β

For `CN1CCCC1c1cccnc1.O=C(O)C(O)C(O)C(=O)O` (single isomer, unassigned; (-)) [Nicotine, (−) Nicotine hydrogen tartrate, reference compound], which “clinical signs in tolerability study” value [8] is on record?
Its value is “experienced severe tremors upon completion of dosing, but all returned to normal by 20 minutes post dose”.
